Read-outs that look alike come from different tables or passages of the source.

These results are taken from US20020028836A1, “Potassium channel openers” (priority 2000, published 2002).

Assay [1] deals with primary cultured guinea-pig urinary bladder (GPB) cells. Nature of the assay: Membrane hyperpolarization (MHP) assay, DiBAC(4)3 / FLIPR. Type of assay: cell-based. To be noted: for EC50: concentration that elicits 50% of the maximal response for the test sample; for Maximal Response (% P1075) / Emax: maximal steady-state hyperpolarization, normalized to response with 10 μM P1075 (100%). On the procedure:
Compounds were evaluated for potassium channel opening activity using primary cultured guinea-pig urinary bladder (GPB) cells.
For the preparation of urinary bladder smooth muscle cells, urinary bladders were removed from male guinea-pigs (Hartley, Charles River, Wilmington, Mass.) weighing 300-400 g and placed in ice-cold Ca^2+-free Krebs solution (Composition, mM: KCl, 2.7; KH2PO4, 1.5; NaCl, 75; Na2HPO4, 9.6; Na2HPO4.7H2O, 8; MgSO4, 2; glucose, 5; HEPES, 10; pH 7.4). Cells were isolated by enzymatic dissociation as previously described with minor modifications (Klockner, U. and Isenberg, G., Pflugers Arch. (1985), 405, 329-339), hereby incorporated by reference. The bladder was cut into small sections and incubated in 5 mL of the Kreb's solution containing I mg/mL collagenase (Sigma, St. Louis, Mo.) and 0.2 mg/mL pronase (Calbiochem, La Jolla, Calif.) with continuous stirring in a cell incubator for 30 minutes. The mixture was then centrifuged at 1300×g for 5 minutes, and the pellet resuspended in Dulbecco's PBS (GIBCO, Gaithersburg, Md.) and recentrifuged to remove residual enzyme. The cell pellet was resuspended in 5 mL growth media (composition: Dulbecco's modified Eagle's medium supplemented with 10% fetal bovine serum, 100 units/mL penicillin, 100 units/mL streptomycin and […] amphotericin B) and further dissociated by pipetting the suspension through a flame-polished Pasteur pipette and passing it through a polypropylene mesh membrane (Spectrum, Houston, Tex.). The cell density was adjusted to 100,000 cells/mL by resuspension in growth media. Cells were plated in clear-bottomed black 96-well plates (Packard) for membrane potential studies at a density of 20,000 cells/well and maintained in a cell incubator with 90% air: 10% CO2 until confluent. Cells were confirmed to be of smooth muscle type by cytoskeletal staining using a monoclonal mouse anti human-α-smooth muscle actin (Biomeda, Foster City, Calif.).
Functional activity at potassium channels was measured by evaluating changes in membrane potential using the bis-oxonol dye DiBAC(4) (Molecular Probes) in a 96-well cell-based kinetic assay system, Fluorescent Imaging Plate Reader (FLIPR) (K. S. Schroeder et al., J. Biomed. Screen., v. 1 pp. 75-81 (1996)), hereby incorporated by reference. DiBAC(4)3 is an anionic potentiometric probe which partitions between cells and extracellular solution in a membrane potential-dependent manner. With increasing membrane potential (for example, K^+ depolarization), the probe further partitions into the cell; this is measured as an increase in fluorescence due to dye interaction with intracellular lipids and proteins. Conversely, decreasing membrane potential (hyperpolarization by potassium channel openers) evokes a decrease in fluorescence.
Confluent guinea-pig urinary bladder cells cultured in black clear-bottomed 96-well plates were rinsed twice with […] assay buffer (composition, mM: HEPES, 20; NaCl, 120; KCl, 2; CaCl2, 2; MgCl2, 1; glucose, 5; pH 7.4 at 25° C.) containing 5 μM DiBAC(4)3 and incubated with […] of the buffer in a cell incubator for 30 minutes at 37° C. to ensure dye distribution across the membrane. After recording the baseline fluorescence for 5 minutes, the reference or test compounds, prepared at 10 times the concentration in the assay buffer, were added directly to the wells. Changes in fluorescence were monitored for an additional 25 minutes. Hyperpolarization responses were corrected for any background noise and were normalized to the response observed with 10 μM of the reference compound P1075 (assigned as 100%), a potent opener of smooth muscle KATP channels (Quast et al., Mol. Pharmacol., v. 43 pp. 474-481 (1993)), hereby incorporated by reference.
Routinely, five concentrations of P1075 or test compounds (log or half-log dilutions) were evaluated and the maximal steady-state hyperpolarization values (expressed as % relative to P1075) plotted as a function of concentration. […]

Assay [2] has as its system tissue strips obtained from Landrace pig bladders. The assay is described as follows: Functional potassium channel opening activity in isolated bladder strips (field-stimulated twitch). To be noted: for Index: ED50 for P1075 divided by ED50 for the test agonist in a given tissue, averaged; for Emax / Efficacy (% P1075): maximal efficacy relative to P1075, field stimulation 0.05 Hz, 0.5 ms, 20 volts; for EC50: amount of agent necessary to cause 50% of the agent's maximal response, read-out: ED50 (the source's name). On the procedure: Compounds were evaluated for functional potassium channel opening activity using tissue strips obtained from Landrace pig bladders.
Landrace pig bladders were obtained from female Landrace pigs of 9-30 kg. Landrace pigs were euthanized with an intraperitoneal injection of pentobarbital solution, Somlethal®, J. A. Webster Inc., Sterling, Mass. The entire bladder was removed and immediately placed into Krebs Ringer bicarbonate solution (composition, mM: NaCl, 120; NaHCO3, 20; dextrose, 11; KCl, 4.7; CaCl2, 2.5; MgSO4, 1.5; KH2PO4, 1.2; K2EDTA, 0.01, equilibrated with 5% CO2/95% O2pH 7.4 at 37° C.). Propranolol (0.004 mM) was included in all of the assays to block β-adrenoceptors. The trigonal and dome portions were discarded. Strips 3-5 mm wide and 20 mm long were prepared from the remaining tissue cut in a circular fashion. The mucosal layer was removed. One end was fixed to a stationary glass rod and the other to a Grass FT03 transducer at a basal preload of 1.0 gram. Two parallel platinum electrodes were included in the stationary glass rod to provide field stimulation of 0.05 Hz, 0.5 milli-seconds at 20 volts. This low frequency stimulation produced a stable twitch response of 100-500 centigrams. Tissues were allowed to equilibrate for at least 60 minutes and primed with 80 mM KCl. A control concentration response curve (cumulative) was generated for each tissue using the potassium channel opener P1075 as the control agonist. […] After a 60 minute rinsing period, a concentration response curve (cumulative) was generated for the test agonist in the same fashion as that used for the control agonist P1075. The maximal efficacy of each compound (expressed as % relative to P1075) is reported. The amount of agent necessary to cause 50% of the agent's maximal response (ED50) was calculated using “ALLFIT” (DeLean et al., Am. J. Physiol., 235, E97 (1980)), hereby incorporated by reference. Agonist potencies were also expressed as an index relative to P1075. The index was calculated by dividing the ED50 for P1075 by the ED50 for the test agonist in a given tissue. Each tissue was used for only one test agonist, and the indices obtained from each tissue were averaged to provide an average index of potency.

What is called Emax is the size of the effect at its maximum, as opposed to the concentration needed. Consider `CC1=C(CC(NC(=O)c2ccc(Cl)cc2)NC(=NC#N)Nc2cccnc2)C(C)(C)CCC1` (single isomer, unassigned; (+)) [Example 88, (+) 4-chloro-N-[1-{[(cyanoimino)(3-pyridinylamino)methyl]amino}-2-(2,6,6-trimethyl-1-cyclohexen-1-yl)ethyl]benzamide], for which, in assay [1], the EC50 came out at 0.22 µM and the “Maximal Response (% P1075)” value came to 87 % P1075. Further, in assay [2], the Index came out at 0.074 and the EC50 turned out to be 10 µM. The compound further showed a maximal effect (Emax) in assay [2] (Sus scrofa) of 36%.

Turning to `Cc1ccc(C(=O)NC(NC(=NC#N)Nc2cccnc2)C(C)(C)C)cc1` (single isomer, unassigned; (-)) [Example 57, (−) N-(1-{[(cyanoimino)(3-pyridinylamino)methyl]amino}-2,2-dimethylpropyl)-4-methylbenzamide], in assay [1], the EC50 is 4.6 µM and the “Maximal Response (% P1075)” value amounted to 80 % P1075. In addition, in assay [2], the Index stood at 0.007, the EC50 was found to be 14 µM and the “Efficacy (% P1075)” value is 85 % P1075.

`CCC(CC)(CCC#N)C(NC(=O)c1ccc(Cl)cc1)NC(=NC#N)Nc1cccnc1` (single isomer, unassigned; (-)) [Example 86, (−) 4-chloro-N-(4-cyano-1-{[(cyanoimino)(3-pyridinylamino)methyl]amino}-2,2-diethylbutyl)benzamide]: in assay [1], the EC50 was determined as 0.086 µM and the “Maximal Response (% P1075)” value is listed as 83 % P1075. In addition, in assay [2], the Index is recorded as 0.01, the EC50 is 30 µM and the “Efficacy (% P1075)” value is reported as 19 % P1075.

Regarding `CC1=C(CC(NC(=O)c2ccc(Cl)cc2)NC(=NC#N)Nc2cccnc2)C(C)(C)CCC1` (single isomer, unassigned; (-)) [Example 89, (−) 4-chloro-N-[1-{[(cyanoimino)(3-pyridinylamino)methyl]amino}-2-(2,6,6-trimethyl-1-cyclohexen-1-yl)ethyl]benzamide], in assay [1], the EC50 worked out at 0.1 µM and the “Maximal Response (% P1075)” value came out at 88 % P1075. Further, in assay [2], the Index came to 0.120, the EC50 was 3.4 µM and the “Efficacy (% P1075)” value is recorded as 41 % P1075.

As to `C=CCC(C)(C)C(NC(=O)c1ccc(Cl)cc1)NC(=NC#N)Nc1cccnc1` (single isomer, unassigned; (-)) [Example 90, (−) 4-chloro-N-(1-{[(cyanoimino)(3-pyridinylamino)methyl]amino}-2,2-dimethyl-4-pentenyl)benzamide], the Emax was found to be 55% in assay [1] (Cavia porcellus) and 44% in assay [2] (Sus scrofa). Further, the EC50 stood at 0.17 µM in assay [1] and 0.42 µM in assay [2] (Sus scrofa). Further, the Index in assay [2] is listed as 0.420.

For `Cc1ccc(C(=O)NC(NC(=S)Nc2cccnc2)C(F)(F)F)cc1` (stereo not drawn) [Example 1, 4-methyl-N-(2,2,2-trifluoro-1-{[(3-pyridinylamino)carbothioyl]amino}ethyl)benzamide], the EC50 came out at 0.07 µM in assay [1] (Cavia porcellus) and 9 µM in assay [2] (Sus scrofa). Also, the Emax in assay [1] (Cavia porcellus) worked out at 116%; in assay [2] (Sus scrofa), 100%. Also, in assay [2], the Index was found to be 0.009.

In the case of `Cc1ccc(C(=O)NC(NC(=S)Nc2ccc(F)cc2)C(F)(F)F)cc1` (stereo not drawn) [Example 3, 4-methyl-N-(2,2,2-trifluoro-1-{[(4-fluoroanilino)carbothioyl]amino}ethyl)benzamide], the EC50 stood at 0.89 µM in assay [1] (Cavia porcellus) and 9 µM in assay [2] (Sus scrofa). The figures for the Emax in assay [1] (Cavia porcellus) and in assay [2] (Sus scrofa) were 79% and 97%, respectively. This compound returned an Index in assay [2] of 0.012.

In the case of `Cc1ccc(C(=O)NC(NC(=S)Nc2cccc([N+](=O)[O-])c2)C(F)(F)F)cc1` (stereo not drawn) [Example 4, 4-methyl-N-(2,2,2-trifluoro-1-{[(3-nitroanilino)carbothioyl]amino}ethyl)benzamide], in assay [1] (Cavia porcellus), the EC50 was determined as 0.3 µM and the Emax is 133%. The compound also gave an Index in assay [2] of 0.015. In assay [2] (Sus scrofa), the EC50 came out at 18 µM and the Emax was determined as 89%.

For the compound `Cc1ccc(C(=O)NC(NC(=S)Nc2ccccc2)C(F)(F)F)cc1` (stereo not drawn) [Example 9, N-{1-[(anilinocarbothioyl)amino]-2,2,2-trifluoroethyl}-4-methylbenzamide], in assay [1] (Cavia porcellus), the EC50 turned out to be 0.08 µM and the Emax came to 104%. Moreover, the Index in assay [2] came to 0.011. In addition, in assay [2] (Sus scrofa), the EC50 came out at 17 µM and the Emax was found to be 91%.

Regarding `Cc1ccc(C(=O)NC(NC(=S)Nc2ccccc2F)C(F)(F)F)cc1` (stereo not drawn) [Example 11, 4-methyl-N-(2,2,2-trifluoro-1-{[(2-fluoroanilino)carbothioyl]amino}ethyl)benzamide], in assay [1] (Cavia porcellus), the EC50 was found to be 0.51 µM and the Emax is 109%. Also, the Index in assay [2] was 0.011. Besides, in assay [2] (Sus scrofa), the EC50 turned out to be 19 µM and the Emax was found to be 100%.

In assay [1] (Cavia porcellus), `Cc1ccc(C(=O)NC(NC(=S)Nc2cccc(F)c2)C(F)(F)F)cc1` (stereo not drawn) [Example 13, 4-methyl-N-(2,2,2-trifluoro-1-{[(3-fluoroanilino)carbothioyl]amino}ethyl)benzamide] had an EC50 of 0.35 µM and a maximal effect (Emax) of 91%. For the same compound, the Index in assay [2] worked out at 0.022. Besides, in assay [2] (Sus scrofa), the EC50 amounted to 10 µM and the Emax amounted to 95%.

Consider `Cc1ccc(C(=O)NC(NC(=S)Nc2cc(F)ccc2F)C(F)(F)F)cc1` (stereo not drawn) [Example 14, N-(1-{[(2,5-difluoroanilino)carbothioyl]amino}-2,2,2-trifluoroethyl)-4-methylbenzamide], for which, in assay [1] (Cavia porcellus), the EC50 amounted to 0.3 µM and the Emax was found to be 110%. This compound came in with an Index in assay [2] of 0.027. Further, in assay [2] (Sus scrofa), the EC50 came out at 14 µM and the Emax came out at 96%.
